Experimental data published in the NIST ThermoML archive (doi:10.1016/j.jct.2017.08.025).
Where “and” joins values, the source holds several entries; their conditions need not be identical. Identical values can stand only once.

Test: mn = molality of the nth substance listed, in mol/kg
Conditions: 100 kPa, Liquid; for speed of sound: Frequency=3 MHz, Single path-length method; for mass density: Vibrating tube method

CCCCn1cc[n+](C)c1.F[B-](F)(F)F [1-butyl-3-methylimidazolium tetrafluoroborate] + O
Conditions | mass density, 288.15 K [kg/m3] | mass density, 293.15 K | mass density, 298.15 K | mass density, 303.15 K | mass density, 308.15 K | speed of sound, 288.15 K [m/s] | speed of sound, 293.15 K [m/s] | speed of sound, 298.15 K [m/s] | speed of sound, 303.15 K [m/s] | speed of sound, 308.15 K [m/s]
m1 = 0.005 | 999.42 | 998.517 kg/m3 | 997.393 kg/m3 | 995.982 kg/m3 | 994.365 kg/m3 | 1464.7 | 1482.6 | 1497.5 | 1512.3 | 1519.6
m1 = 0.01 | 999.705 | 998.831 kg/m3 | 997.7 kg/m3 and 997.702 kg/m3 | 996.31 kg/m3 and 996.311 kg/m3 | 994.694 kg/m3 | 1465.1 | 1483.1 | 1497.9 | 1512.8 | 1520.6
m1 = 0.03 | 1000.86 | 999.967 kg/m3 and 999.97 kg/m3 | 998.803 kg/m3 | 997.512 kg/m3 and 997.51 kg/m3 | 995.895 kg/m3 | 1467 | 1484.9 | 1499.8 | 1514.6 | 1522.4
m1 = 0.05 | 1002 | 1001 kg/m3 | 999.906 kg/m3 and 999.91 kg/m3 | 998.675 kg/m3 and 998.68 kg/m3 | 996.998 kg/m3 and 997 kg/m3 | 1468.8 | 1486.7 | 1501.6 | 1516.4 | 1524.2
